Data taken from publication PMC10013565 (Journal of Enzyme Inhibition and Medicinal Chemistry, 2023).
pKi: −log10 of the molar value.

Legend:
[1] = target: hCA I (Homo sapiens, UniProt P00915); test: stopped-flow CO2 hydrase assay, hCA I; assay type: biochemical
[2] = target: hCA II (Homo sapiens, UniProt P00918); test: stopped-flow CO2 hydrase assay, hCA II; assay type: biochemical
[3] = target: hCA IX (Homo sapiens, UniProt Q16790); test: biochemical
[4] = target: hCA XII (Homo sapiens, UniProt O43570); test: stopped-flow CO2 hydrase assay, hCA XII; assay type: biochemical
Sequence of hCA XII (O43570 25-354): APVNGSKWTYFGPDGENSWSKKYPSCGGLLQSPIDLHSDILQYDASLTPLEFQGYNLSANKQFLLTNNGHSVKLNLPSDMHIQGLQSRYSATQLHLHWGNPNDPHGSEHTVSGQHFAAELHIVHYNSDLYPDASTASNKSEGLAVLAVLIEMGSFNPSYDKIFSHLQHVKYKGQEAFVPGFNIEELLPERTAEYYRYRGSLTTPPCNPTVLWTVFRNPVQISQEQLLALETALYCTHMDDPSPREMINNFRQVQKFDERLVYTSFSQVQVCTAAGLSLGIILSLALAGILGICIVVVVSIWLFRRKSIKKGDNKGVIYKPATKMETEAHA

Sequence of hCA I (P00915 whole entry): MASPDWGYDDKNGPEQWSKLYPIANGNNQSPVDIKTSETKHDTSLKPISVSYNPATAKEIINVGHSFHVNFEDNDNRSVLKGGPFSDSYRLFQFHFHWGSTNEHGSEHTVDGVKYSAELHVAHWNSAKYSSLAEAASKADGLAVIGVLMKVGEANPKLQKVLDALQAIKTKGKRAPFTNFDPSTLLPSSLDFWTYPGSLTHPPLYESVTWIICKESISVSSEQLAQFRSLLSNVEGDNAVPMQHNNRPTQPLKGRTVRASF

SMILES	pKi [1]	pKi [2]	pKi [3]	pKi [4]
O=C(c1cc2ccccc2oc1=O)N1CCN(C(=S)Nc2ccc(Cl)cc2)CC1 [7b, N-(4-chlorophenyl)-4–(2-oxo-2H-chromene-3-carbonyl)piperazine-1-carbothioamide]	< 4.00	< 4.00	5.04	5.10
CCS(=O)(=O)N1CCN(C(=O)c2cc3ccccc3oc2=O)CC1 [6e, 3–(4-(Ethylsulfonyl)piperazine-1-carbonyl)-2H-chromen-2-one]	< 4.00	< 4.00	4.42	4.58
O=C(c1cc2ccccc2oc1=O)N1CCN(S(=O)(=O)c2cccs2)CC1 [6c, 3–(4-(Thiophen-2-ylsulfonyl)piperazine-1-carbonyl)-2H-chromen-2-one]	< 4.00	< 4.00	–	4.18
O=C(c1cc2ccccc2oc1=O)N1CCN(C(=S)Nc2ccccc2Cl)CC1 [7a, N-(2-chlorophenyl)-4–(2-oxo-2H-chromene-3-carbonyl)piperazine-1-carbothioamide]	< 4.00	< 4.00	4.14	4.32
O=C(c1cc2ccccc2oc1=O)N1CCN(S(=O)(=O)c2ccc([N+](=O)[O-])cc2)CC1 [6a, 3–(4-((4-Nitrophenyl)sulphonyl)piperazine-1-carbonyl)-2H-chromen-2-one]	< 4.00	< 4.00	5.15	5.04
O=C(c1cc2ccccc2oc1=O)N1CCN(C(=S)Nc2ccccc2)CC1 [7c, 4–(2-Oxo-2H-chromene-3-carbonyl)-N-phenylpiperazine-1-carbothioamide]	< 4.00	< 4.00	–	4.50
O=C(c1cc2ccc(O)cc2oc1=O)N1CCN(S(=O)(=O)c2ccc(F)cc2)CC1 [12a, 3–(4-((4-Fluorophenyl)sulphonyl)piperazine-1-carbonyl)-7-hydroxy-2H-chromen-2-one]	< 4.00	< 4.00	< 4.00	4.06
O=C(c1cc2ccccc2oc1=O)N1CCN(S(=O)(=O)c2ccc(Br)s2)CC1 [6d, 3–(4-((5-Bromothiophen-2-yl)sulphonyl)piperazine-1-carbonyl)-2H-chromen-2-one]	< 4.00	< 4.00	5.25	5.01
O=C(c1cc2ccc(O)cc2oc1=O)N1CCN(S(=O)(=O)c2ccc(Br)s2)CC1 [12c, 3–(4-((5-Bromothiophen-2-yl)sulphonyl)piperazine-1-carbonyl)-7-hydroxy-2H-chromen-2-one]	< 4.00	< 4.00	4.29	< 4.00
O=C(c1cc2ccc(O)cc2oc1=O)N1CCN(S(=O)(=O)c2ccccc2)CC1 [12b, 7-Hydroxy-3–(4-(phenylsulfonyl)piperazine-1-carbonyl)-2H-chromen-2-one]	< 4.00	< 4.00	< 4.00	5.03

Other lines, results leading:

pKi [1]	pKi [2]	pKi [3]	pKi [4]	SMILES
< 4.00	< 4.00	< 4.00	4.44	O=C(c1c(O)c2ccccc2oc1=O)N1CCN(S(=O)(=O)c2ccc(Br)s2)CC1 [16c, 3–(4-((5-Bromothiophen-2-yl)sulphonyl)piperazine-1-carbonyl)-4-hydroxy-2H-chromene-2-one]
< 4.00	< 4.00	5.05	5.03	C/C(=N\OCc1ccc(Cl)cc1)c1cc2ccccc2oc1=O [20b, (E)-3–(1-(((4-chlorobenzyl)oxy)imino)ethyl)-2H-chromen-2-one]
< 4.00	< 4.00	< 4.00	4.04	O=C(c1c(O)c2ccccc2oc1=O)N1CCN(S(=O)(=O)c2ccc(F)cc2)CC1 [16a, 3–(4-((4-Fluorophenyl)sulphonyl)piperazine-1-carbonyl)-4-hydroxy-2H-chromen-2-one]
< 4.00	< 4.00	4.04	5.02	O=C(c1c(O)c2ccccc2oc1=O)N1CCN(S(=O)(=O)c2ccccc2)CC1 [16b, 4-Hydroxy-3–(4-(phenylsulfonyl)piperazine-1-carbonyl)-2H-chromen-2-one]
< 4.00	< 4.00	4.21	–	C/C(=N\OCc1ccc(F)cc1)c1cc2ccccc2oc1=O [20a, (E)-3–(1-(((4-fluorobenzyl)oxy)imino)ethyl)-2H-chromen-2-one]
